Laboratory results from patent US20070275936A1, “Formulations and Treatment Methods” (priority 1998, published 2007).
Read-outs that look alike come from different tables or passages of the source.

Experiments:
[1] = Pharmacokinetics of BrEA after subcutaneous dose in rats; assay type: in vivo; settings: for half-life: rat, plasma, sc, biphasic elimination
Method: BrEA was administered subcutaneously to rats using the formulation of example 1. Approximately 90% of the drug left the injection site within 24 hours of administration, and reached a maximum concentration in the plasma of about 0.2% of the injected dose at one hour post administration. Elimination from the plasma was biphasic, with half-lives of about 12 and 72 hours respectively. […] A study is also performed in Rhesus Monkeys with the example 1 formulation to determine plasma pharmacokinetics.

[2] = Plasma pharmacokinetics of 14C BrEA in Rhesus Monkeys; assay type: in vivo; settings: 1 mg/kg s.c. 14C BrEA
Method: A pharmacokinetic analysis of ^14C BrEA in plasma was conducted in two female Rhesus Monkeys. Trace labeled compound (16α-bromo-3-beta-hydroxy-5α-[4-^14C]-androstan-17-one [50 mCi/mmole]) was used at a dose of 1 mg/kg as a subcutaneous injection in the scapular region using an injection volume of 1 mL/kg. The BrEA was formulated in 25% polyethylene glycol 300, 12.5% absolute ethanol, 5% benzyl benzoate, and qs with propylene glycol. 40 μCi were injected per animal. Blood samples were taken at 0, 0.5, 1, 2, 4, 8, and 24 hours for determination of ^14C activity. The radioactivity in the plasma rose to near peak concentration in 8 hours and remained at approximately the same level through the end of the study at 24 hours.

[3] = system: Plasmodium falciparum; experiment: Inhibition of parasite growth in culture; assay type: cell-based
Method: The effect of Epi (16α-bromo-epiandrosterone) on parasite (Plasmodium falciparum) growth was shown. EPI was active at a concentration of 1 μM.
Parasitemias were determined by standard methods (microscopic inspection of at least 500 cells, stained with Diff-Quick™ (Baxter). Parasites were cultured under standard conditions in RPMI-1640 supplemented with Hepes/Glucose (10 mM), glutamine (0.3 g/liter) and 10% human plasma. The hematocrit was 1%.

[4] = system: blood cell counts; experiment: Enhancement of hemopoiesis in a human HIV patient; assay type: in vivo
Method: A human patient infected with the HIV virus was treated with 16α-bromoepiandrosterone (“BrEA”), using a physiological saline formulation containing 10 mg/mL of BrEA in solution, 36% w/v hydroxypropyl-β-cyclodextrin and 20 mg/mL of micronized BrEA in suspension. The patient received two courses of treatment. The first course consisted of subcutaneous injection once per day of 80 mg of BrEA for 10 days. The second course of treatment commenced 74 days later and used the same formulation, except that deuterium oxide replaced water in the formulation. The second treatment course consisted of subcutaneous injection once per day of 80 mg of BrEA for 15 days. The patient's blood parameters were obtained at the start and at the end of each course of treatment.

C[C@]12CC[C@H](O)C[C@@H]1CC[C@@H]1[C@@H]2CC[C@]2(C)C(=O)[C@H](Br)C[C@@H]12 [BrEA, 16α-bromo-3β-hydroxy-5α-androstane-17-one]
half-life ([1]; rats s.c., read-out: plasma elimination half-life, first phase (converted)): ~12 h
half-life ([1]; rats s.c., read-out: plasma elimination half-life, second phase (converted)): ~72 h
accumulation in organs ([1]; rats s.c.): did not accumulate to a significant extent in any major organ
route of excretion ([1]; rats s.c.): excreted primarily in the feces
time of maximum concentration in the plasma ([1]; rats s.c.): one
maximum concentration in the plasma ([1]; rats s.c., at one hour post administration): about 0.2 % of the injected dose
drug left the injection site ([1]; rats, subcutaneous, formulation of example 1, within 24 hours): Approximately 90%
time for plasma radioactivity to rise to near peak concentration [2]: 8 h
Parasitemia after treatment ([3]; 50 nM, 24 hrs, Time 0 2%, control + DMSO 8.80%): 9.90%
Parasitemia after treatment ([3]; 50 nM, 48 hrs, Time 0 2%, control + DMSO 11%): 9.20%
Parasitemia after treatment ([3]; 50 nM, 72 hrs, Time 0 2%, control + DMSO 8%): 8.30%
Parasitemia after treatment ([3]; 1 μM, 24 hrs, Time 0 2%, control + DMSO 8.80%): 5.80%
Parasitemia after treatment ([3]; 1 μM, 24 hrs, Time 0 5%, control + DMSO 5.40%): 5.70%
Parasitemia after treatment ([3]; 1 μM, 48 hrs, Time 0 2%, control + DMSO 11%): 6.10%
Parasitemia after treatment ([3]; 1 μM, 48 hrs, Time 0 5%, control + DMSO 3.10%): 5.50%
Parasitemia after treatment ([3]; 1 μM, 72 hrs, Time 0 2%, control + DMSO 8%): 2.10%
Parasitemia after treatment ([3]; 1 μM, 72 hrs, Time 0 5%, control + DMSO 5.20%): 1.60%
Parasitemia after treatment ([3]; 2.5 μM, 24 hrs, Time 0 2%, control + DMSO 8.80%): 7.30%
Parasitemia after treatment ([3]; 2.5 μM, 48 hrs, Time 0 2%, control + DMSO 11%): 5.80%
Parasitemia after treatment ([3]; 2.5 μM, 72 hrs, Time 0 2%, control + DMSO 8%): 3.20%
Parasitemia after treatment ([3]; 5 μM, 24 hrs, Time 0 2%, control + DMSO 8.80%): 5.40%
Parasitemia after treatment ([3]; 5 μM, 48 hrs, Time 0 2%, control + DMSO 11%): 6%
Parasitemia after treatment ([3]; 5 μM, 72 hrs, Time 0 2%, control + DMSO 8%): 1.80%
Parasitemia after treatment ([3]; 10 μM, 24 hrs, Time 0 2%, control + DMSO 8.80%): 4.20%
Parasitemia after treatment ([3]; 10 μM, 24 hrs, Time 0 5%, control + DMSO 5.40%): 5.60%
Parasitemia after treatment ([3]; 10 μM, 48 hrs, Time 0 2%, control + DMSO 11%): 3%
Parasitemia after treatment ([3]; 10 μM, 48 hrs, Time 0 5%, control + DMSO 3.10%): 0.90%
Parasitemia after treatment ([3]; 10 μM, 72 hrs, Time 0 2%, control + DMSO 8%): 0%
Parasitemia after treatment ([3]; 10 μM, 72 hrs, Time 0 5%, control + DMSO 5.20%): 0%
Parasitemia after treatment ([3]; 50 μM, 24 hrs, Time 0 2%, control + DMSO 8.80%): 0%
Parasitemia after treatment ([3]; 50 μM, 48 hrs, Time 0 2%, control + DMSO 11%): 0%
Parasitemia after treatment ([3]; 50 μM, 72 hrs, Time 0 2%, control + DMSO 8%): 0%
Parasitemia after treatment ([3]; 100 μM, 24 hrs, Time 0 5%, control + DMSO 5.40%): 0%
Parasitemia after treatment ([3]; 100 μM, 48 hrs, Time 0 5%, control + DMSO 3.10%): 0%
Parasitemia after treatment ([3]; 100 μM, 72 hrs, Time 0 5%, control + DMSO 5.20%): 0%
Parasitemia after treatment ([3]; 500 μM, 24 hrs, Time 0 5%, control + DMSO 5.40%): 0%
Parasitemia after treatment ([3]; 500 μM, 48 hrs, Time 0 5%, control + DMSO 3.10%): 0%
Parasitemia after treatment ([3]; 500 μM, 72 hrs, Time 0 5%, control + DMSO 5.20%): 0%
concentration at which active on parasite growth ([3]; P. falciparum culture): 1 µM
WBC ([4]; 1st Course end (80 mg s.c. daily 10 days), start 2.38): 2.47e+09 L⁻¹
basophils ([4]; 1st Course end, start 0.02): 1e+07 L⁻¹
monocytes ([4]; 1st Course end, start 0.35): 3e+08 L⁻¹
neutrophils ([4]; 1st Course end, start 0.92): 8e+08 L⁻¹
CD4+ T cells ([4]; 1st Course end, start 93): 116 mm^−3
CD16+/56+ NK cells ([4]; 1st Course end, start 186): 348 mm^−3
T suppressor cells ([4]; 1st Course end, start 344): 452 mm^−3
WBC ([4]; 2nd Course end (80 mg s.c. daily 15 days), start 3.57): 5.66e+09 L⁻¹
basophils ([4]; 2nd Course end, start 0.01): 6e+07 L⁻¹
monocytes ([4]; 2nd Course end, start 0.34): 5.4e+08 L⁻¹
neutrophils ([4]; 2nd Course end, start 2.02): 3.6e+09 L⁻¹
CD4+ T cells ([4]; 2nd Course end, start 113): 125 mm^−3
CD16+/56+ NK cells ([4]; 2nd Course end, start 144): 425 mm^−3
T suppressor cells ([4]; 2nd Course end, start 351): 513 mm^−3
